Here are results for one compound from article PMC9862186 (International Journal of Molecular Sciences, 2023).

Bounds are passed on as bounds.

Data set [1] can be described thus: in vivo. How it is done:
(§1) A saline solution (0.9% NaCl) was added to a mixture of cinnamaldehyde (density = 1.05 g/mL) and Cremophor® RH 40 (1:1 v/v) in order to obtain a 12.5 mg/mL cinnamaldehyde emulsion in the presence of ethanol (10% of final volume). A group (n = 4) of male Wistar rats (200–250 g) fasted for 24 h was anesthetized during the experimental period and received 0.4 mL via a femoral intravenous infusion (rate = 0.2 mL/min; 2 min) of 12.5 mg/mL cinnamaldehyde emulsion (20 mg/kg cinnamaldehyde dose).
(§2) At the end of the infusions and at fixed time points, CSF samples (50 μL) were withdrawn and blood samples (100 μL) were collected. The CSF was withdrawn using the cisternal puncture method described by van den Berg et al., which requires a single needle stick and allows the collection of serials (40–50 μL) CSF samples that are virtually blood-free. A total volume of about a maximum of 150 μL of CSF/rat (i.e., three 50 μL samples/rat) was collected during the experimental session, choosing the time points (n = 3–5, taking into account a maximum of three collections per rat) in order to allow the restoring of the CSF physiological volume.
The samples were centrifuged at 12,500× g for 5 min, then about 300 μL of supernatant were withdrawn and further centrifuged. […] As a control, a blood sample (100 μL) was collected by each rat before the administrations of the drugs. The control samples were immediately added to 300 μL of ice-cold CH3CN in the absence of internal standard, then treated as described above.
For cinnamaldehyde analysis the blood samples were hemolyzed immediately after their collection with 500 μL of ice-cold water, and then 50 μL of 10% sulfosalicylic acid and 50 μL of internal standard (100 μM carbazole dissolved in a water-methanol mixture 50:50 v/v) was added. The samples were extracted twice with 1 mL of water-saturated ethyl acetate, and, after centrifugation at 12,500× g for 10 min, the organic layer was reduced to dryness under a mild nitrogen stream at room temperature. Then, 200 μL of a water-acetonitrile mixture (50:50 v/v) were added, and after centrifugation, 10 μL were analyzed via HPLC (see below) for cinnamaldehyde detection. As a control, a blood sample (100 μL) was collected by each rat before the administration of the drug. The control samples were treated as described above in the absence of internal standard.
In particular, all the AUC values referred to the bloodstream were calculated by the trapezoidal method within the last time point detected, and the remaining area was obtained as the ratio between the compound concentration detected at the last time point and the elimination constant (kel), which was obtained from the slope of the semilogarithmic plots (−slope × 2.3). The clearance (Cl) and distribution volume (Vd) values were calculated according to the non-compartmental model as the ratios “dose/AUC” and “Cl/kel”, respectively, where kel is the elimination constant obtained by the slope of semilogarithmic plot.
(§3) The chromatographic apparatus consisted of a modular system (model LC-10 AD VD pump and model SPD-10A VP variable wavelength UV−vis detector; Shimadzu, Kyoto, Japan) and an injection valve with 20 μL sample loop (model 7725; Rheodyne, IDEX, Torrance, CA, USA). Separations were performed at room temperature on a 5 μm Hypersil BDS C-18 column (150 mm × 4.6 mm i.d.; Alltech Italia Srl, Milan, Italy) equipped with a guard column packed with the same Hypersil material. The volume injection was 10 μL. Data acquisition and processing were performed on a personal computer using CLASS-VP Software, version 7.2.1 (Shimadzu Italia, Milan, Italy).
The detector was set at 205 nm.

Data set [2] in a line: in vivo. Conditions: male, Wistar, rat, in vivo, iv. How it is done:
as §1, §2, §3
For CSF simulation, standard aliquots of balanced solution (Dulbecco’s phosphate buffer saline—DPBS—without calcium and magnesium) in the presence of 0.45 mg/mL BSA were used.

A further data set deals with PC12 cells. The data set can be described thus: MTT cell viability assay in neuronal differentiated PC12 cells. Particulars: 2 h. It is filed as cell-based, rat. As to the method: PC12 cell line (RRID:CVCL_0481), derived from rat adrenal gland pheochromocytoma, was a kind gift from Dr Federica Brugnoli from the Department of Translational Medicine, University of Ferrara, Ferrara (Italy). The cells were grown in RPMI-1640 (HiGlutaXL) medium (Microtech, Naples, Italy), supplemented with 100 µg/mL streptomycin and 100 IU/mL penicillin, 10% horse serum (HS), and 5% fetal bovine serum (FBS). PC12 cells were gently removed from the 4 µg/cm^2 collagen IV-coated flask with a rubber scraper, transferred as cell suspension into a Falcon tube and resuspended through a sterile tip to avoid any clumping, then split into separate flasks twice weekly. To differentiate neuronal phenotypes, PC12 cells were seeded in 4 µg/cm^2 collagen IV-coated 12-well plates at a density of 5000 cells/well, and they were then left to adhere to the well for 24 h. […] All the proliferative and differentiated cultures were maintained at 37 °C in a humidified 5% CO2 atmosphere.
The 100% of cell viability was stated as control in the absence of compound. Then, incubation buffer was withdrawn, and 0.2 mL per well of a solution of MTT 500 µg/mL was added to each well and kept for 2 h at 37 °C in a humidified atmosphere at 95% with 5% CO2. After the conversion of the substrate to a chromogenic product by metabolically active cells, the MTT solution was removed, and the purple MTT formazan crystals were solubilized with 0.1 mL/well of DMSO for 60 min at 37 °C. The absorbance of each sample was measured with a multiplate reader spectrophotometer (Sunrise® Microplate Reader, Tecan Trading AG, Männedorf, Switzerland) at 570 nm, using 690 nm as a reference wavelength. Cell viability, proportional to absorbance, was reported as ratio between the absorbance resulting from the treatments and absorbance resulting from the control, considered as 100% of viable cells. Data were plotted as graphs and analyzed using GraphPad software (Prism, version 7.0, San Diego, CA, USA).

Setting [3] is: male, Wistar, rat, in vivo, iv, 20 mg/kg.

In “in vivo [1]” (male, Wistar, rat, in vivo, iv), `C=CCc1ccc(O)c(OC)c1` [Eugenol] registered a volume of distribution (Vd) of 3.21 ± 0.247 L/kg, a clearance of 114 ± 2 mL/min/kg and a half-life of 19.4 ± 2.1 min. Further, in the data set “in vivo [1]” (setting [3]), the concentration at 5 min is 3600 ± 200 ng/mL and the concentration at 10 min came to 2900 ± 100 ng/mL. For the same compound, the k el in “in vivo [1]” (male, Wistar, rat, in vivo, iv, kel: pseudo first order kinetic elimination rate constant, rat blood, iv 20 mg/kg (eugenol, cinnamaldehyde), 100 mg/kg (D-limonene), eugenol value terminal) was 0.0006 s⁻¹. Further, the “C0: concentration in the bloodstream at the end of infusion” value in the data set “in vivo [1]” (rat blood, iv infusion 2 min, 20 mg/kg eugenol and cinnamaldehyde, 100 mg/kg D-limonene, mean ± SE, n = 4) came to 16500 ± 200 ng/mL. The “Tmax: time of Cmax in CSF” value in the data set “in vivo [2]” is 10 min. Also, in “in vivo [2]” (20 mg/kg), the AUC is 935 ng·h/mL, the concentration peaked (Cmax) at 2790 ± 180 ng/mL and the “time within which CSF concentrations decreased to zero or near to zero” value is listed as ≤ 45 min. Further, the concentration ratio (Kp) at 10 min in “in vivo [2]” (R: ratio of concentration between CSF and bloodstream at Tmax) amounted to 0.96. The “increase of cell viability over the untreated cell value” with PC12 cells (25 µM, 37 °C, NGF-differentiated PC12) was 2.5 times. Besides, the “effect on cell viability compared to untreated control” value in the data set on PC12 cells (2, 25, 50 and 100 µM, p < 0.0001, no toxic impact) is recorded as “statistically significant increase in cell viability”. Also, in the data set with PC12 cells (tested 2, 25, 50 and 100 µM), the “most effective concentration in increasing cell viability” value is given as 25 µM.

A word on the Vd: it is the apparent volume that relates the amount in the body to the concentration in plasma or blood. A high value points to wide distribution into tissue. The clearance is the volume of plasma or blood freed of the substance per unit of time. A word on the half-life: it is how long it takes for the measured level to halve. Higher therefore signals slow decline. The term AUC denotes the area under the concentration-time curve, a measure of exposure. The term Cmax denotes the maximum level reached in the sampled fluid or tissue. By Kp is commonly meant tissue or fluid exposure divided by exposure in the circulation.
